Biological target: T1, Sm2OGD3 (Salvia miltiorrhiza, UniProt A0A8K1XH31)
T1 construct: gene TIIAS; full-length ORF (1119 nt, 373 aa printed) in pET-30a, E. coli BL21(DE3), crude extract
Assay: UPLC / LC-MS product assay, crude recombinant E. coli extract, initial rates
Format: biochemical
Details: 2-oxoglutarate, ferrous sulfate, L-ascorbate; pH 8.0, 30 °C

T1 sequence (A0A8K1XH31 entry or part of it): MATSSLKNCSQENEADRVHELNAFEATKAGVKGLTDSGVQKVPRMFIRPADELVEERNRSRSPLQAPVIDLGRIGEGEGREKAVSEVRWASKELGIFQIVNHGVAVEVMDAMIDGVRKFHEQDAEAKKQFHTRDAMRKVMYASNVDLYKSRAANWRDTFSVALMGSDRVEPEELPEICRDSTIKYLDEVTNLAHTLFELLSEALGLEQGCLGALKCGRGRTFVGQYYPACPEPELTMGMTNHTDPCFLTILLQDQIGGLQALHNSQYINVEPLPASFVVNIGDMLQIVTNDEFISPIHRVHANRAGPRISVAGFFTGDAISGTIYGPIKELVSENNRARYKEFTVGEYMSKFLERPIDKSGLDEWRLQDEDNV

Km: 20.9 µM
SMILES: CC1=CCCc2c1ccc1c2C(=O)C(=O)C2=C1OCC2C (stereo not shown) [THT, 1,2,15,16-tetrahydrotanshinone I]
